Data published in patent US11098060B2, “Macrocycle containing aminopyrazole and pyrimidine and pharmaceutical composition and use thereof” (CHIA TAI TIANQING PHARMACEUTICAL GROUP CO., LTD., priority 2017, dated 2021).

How the values were obtained:
TrkA^WT kinase = TrkA^WT kinase (Homo sapiens (Human), UniProt P04629); test: Assay for inhibitory activity (IC50) against TrkA^WT (HTRF); assay type: biochemical; conditions: TrkA 1 nM, ATP 40 μM, TK peptide 1 μM, 60 min at 23° C.
[1] = biological target: TrkA^G595R (Kinase domain) kinase (Homo sapiens (Human), UniProt P04629, G595R); test: Assay for inhibitory activity (IC50) against TrkA^G595R kinase (HTRF); assay type: biochemical; conditions: kinase 0.2 nM, TK peptide 1 μM, 120 min at 23° C.
Chain of TrkA^G595R (Kinase domain) kinase (P04629 510-781 G595R): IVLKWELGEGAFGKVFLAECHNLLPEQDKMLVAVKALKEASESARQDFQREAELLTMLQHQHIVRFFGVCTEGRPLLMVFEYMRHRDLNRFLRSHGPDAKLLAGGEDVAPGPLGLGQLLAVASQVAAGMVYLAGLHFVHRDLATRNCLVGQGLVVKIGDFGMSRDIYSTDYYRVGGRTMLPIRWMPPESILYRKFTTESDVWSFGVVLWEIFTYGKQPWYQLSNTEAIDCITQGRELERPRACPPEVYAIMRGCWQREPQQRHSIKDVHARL

[2] = Pharmacokinetic assay in rats, oral; assay type: in vivo; conditions: rat, male SD rats, 5 mg/kg single intragastric administration, plasma
Experimental: Male SD rats were available from Beijing Vital River Laboratory Animal Technology Co., Ltd. The rats were allocated with three rats per group, and orally administered the suspension of a sample to be tested (5 mg/kg, the suspension is a mixed solution of 10% EtOH, 40% PEG 400 and 50% H2O) by single intragastric administration, respectively. Before the experiment, the animals were fasted overnight, and the fasting time was from 10 hrs before administration to 4 hrs after administration. After administration, a blood sample was taken at 0.25 hr, 0.5 hr, 1 hr, 2 hrs, 4 hrs, 6 hrs, 8 hrs and 24 hrs, respectively. After the animals were narcotized with isoflurane using an anaesthesia machine for small animals, 0.3 mL of whole blood was taken from fundus venous plexus, and placed in a heparin anticoagulant tube. At 4° C., the sample was centrifuged at 4000 rpm for 5 min, and plasma was transferred to a centrifuge tube and preserved at −80° C. until the analysis was started. The sample in plasma was extracted by the protein precipitation method, and the extracted liquid was analyzed by LC/MS/MS.

Chain of TrkA^WT kinase (P04629 33-796): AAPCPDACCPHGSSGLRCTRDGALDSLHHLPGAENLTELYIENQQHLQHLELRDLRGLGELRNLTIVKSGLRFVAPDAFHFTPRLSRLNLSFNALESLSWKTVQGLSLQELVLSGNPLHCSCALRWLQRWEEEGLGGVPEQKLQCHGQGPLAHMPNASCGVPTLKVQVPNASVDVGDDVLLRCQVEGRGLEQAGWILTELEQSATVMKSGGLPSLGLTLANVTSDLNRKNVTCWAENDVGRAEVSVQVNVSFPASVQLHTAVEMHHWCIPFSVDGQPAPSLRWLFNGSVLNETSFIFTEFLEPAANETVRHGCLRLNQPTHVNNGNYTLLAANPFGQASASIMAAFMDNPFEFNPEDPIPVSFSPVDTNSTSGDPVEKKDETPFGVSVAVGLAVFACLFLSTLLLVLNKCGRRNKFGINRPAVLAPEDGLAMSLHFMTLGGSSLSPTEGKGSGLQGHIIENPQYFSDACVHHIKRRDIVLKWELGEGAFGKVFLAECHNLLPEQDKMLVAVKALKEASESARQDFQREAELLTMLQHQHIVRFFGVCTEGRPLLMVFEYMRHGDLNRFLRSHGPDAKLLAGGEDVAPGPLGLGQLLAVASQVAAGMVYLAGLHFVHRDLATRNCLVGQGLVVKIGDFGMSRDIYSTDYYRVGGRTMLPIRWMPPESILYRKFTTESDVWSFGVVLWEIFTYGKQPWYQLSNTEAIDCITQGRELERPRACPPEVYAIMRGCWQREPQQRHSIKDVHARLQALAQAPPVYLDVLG

SMILES	IC50 (TrkA^WT kinase) [nM]	IC50 [1] [nM]	AUC(0-inf) [2] [ng·h/mL]	Cmax [2] [ng/mL]	Tmax [2] [h]	half-life [2] [h]
C[C@H]1CNC(=O)c2c(N)nn3ccc(nc23)N2C[C@@H](F)C[C@@H]2c2cc(F)cnc2O1 [Example 15, (1^3E,1^4E,2^2R,2^4S,5S)-1^2-amino-2^4,3^5-difluoro-5-methyl-4-oxa-7-aza-1(5,3)-pyrazolo[1,5-a] pyrimidine--3(3,2)-pyridine-2(1,2)-pyrrolidylcyclooctanephane-8-one]	0.45 ± 0.18	0.53 ± 0.08	494	285	0.58	1.53
Nc1nn2ccc3nc2c1C(=O)NCCOc1ncc(F)cc1[C@H]1CCCN31 [Example 33, (R,1^3E,1^4E)-1^2-amino-3^5-fluoro-4-oxa-7-aza-1(5,3)-pyrazo[1,5-a]pyrimidine-3(3,2)-pyridine-2(1,2)-pyrrolidylcyclooctanephane-8-one]			513	142	0.5	4.22
Nc1nn2ccc3nc2c1C(=O)NCCOc1ncc(F)cc1[C@H]1C[C@H](F)CN31 [Example 14, (1^3E,1^4E,2^2R,2^4S)-1^2-amino-2^4,3^5-difluoro-4-oxa-7-aza-1(5,3)-pyrazolo[1,5-a]pyrimidine-3(3,2)-pyridine-2 (1,2)-pyrrolidylcyclooctanephane-8-one]	0.68 ± 0.03	0.4 ± 0.05	504	140	1	1.81
Nc1nn2ccc3nc2c1C(=O)NCCCCOc1ncc(F)cc1[C@H]1C[C@H](F)CN31 [Example 16, (1^3E,1^4E,2^2R,2^4S)-1^2-amino-2^4,3^5-difluoro-4-oxa-9-aza-1(5,3)-pyrazolo[1,5-a] pyrimidine-3(3,2)-pyridine-2(1,2)-pyrrolidylcyclodecanephane-10-one]	0.51 ± 0.05	0.76 ± 0.14				
Nc1nn2ccc3nc2c1C(=O)NCCCOc1ncc(F)cc1[C@H]1CCCN31 [Example 21, (R,1^3E,1^4E)-1^2-Amino-3^5-fluoro-4-oxa-8-aza-1(5,3)-pyrazol[1,5-a]pyrimidine-3(3,2)-pyridine-2(1,2)-pyrrolidylcyclononanephane-9-one]	0.4 ± 0.04	0.85 ± 0.04				
